Source: the supplement of paper PMC13207355

Key:
Details in all cases: exposure time: 72 h
E34 [1] = patient-derived glioblastoma stem cells of proneural subtype; test: phenotypic distance (Euclidean, principal components) from DMSO controls (arbitrary units); higher = stronger morphological change
E21 [2] = patient-derived glioblastoma stem cells of mesenchymal subtype; test: as above
FT3469 [3] = normal neural stem cell line; test: as above
E57 [4] = patient-derived glioblastoma stem cells of mesenchymal subtype; test: as above
E31 [5] = patient-derived glioblastoma stem cells of proneural subtype; test: as above
E13 [6] = patient-derived glioblastoma stem cells of classical subtype; test: as above
E28 [7] = patient-derived glioblastoma stem cells of classical subtype; test: as above
E34 [8] = test: surviving fraction (nuclei count normalised to DMSO); higher = more cells surviving (less toxic)
E21 [9] = test: as above
FT3469 [10] = test: as above
E57 [11] = test: as above
E31 [12] = test: as above
E13 [13] = test: as above
E28 [14] = test: as above
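For phenotypic distance (Euclidean, principal components) from DMSO controls in this document: cell Painting imaging in 384-well plates, CellProfiler features reduced to at least 20 principal components, Euclidean distance versus same-plate DMSO vehicle wells (0.1% v/v), median over six images per well.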
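For surviving fraction (nuclei count normalised to DMSO) in this document: nuclei counted by high-content imaging of Hoechst-stained cells in laminin-coated 384-well plates, relative to 0.1% DMSO vehicle wells, with staurosporine as cell-death control.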

NC(=O)c1ccccc1 [Benzamide]
Details | phenotypic distance | surviving fraction
E13 [6], 4.1 nM | 0.817 | –
E13 [6], 12.3 nM | 0.661 | –
E13 [6], 37 nM | 0.401 | –
E13 [6], 111.1 nM | 0.597 | –
E13 [6], 333.3 nM | 0.747 | –
E13 [6], 1000 nM | 0.669 | –
E13 [6], 3000 nM | 0.437 | –
E13 [13], 4.1 nM | – | 0.896
E13 [13], 12.3 nM | – | 0.891
E13 [13], 37 nM | – | 0.961
E13 [13], 111.1 nM | – | 1.04
E13 [13], 333.3 nM | – | 1.03
E13 [13], 1000 nM | – | 0.945
E13 [13], 3000 nM | – | 1.04
E21 [2], 4.1 nM | 0.487 | –
E21 [2], 12.3 nM | 0.521 | –
E21 [2], 37 nM | 0.591 | –
E21 [2], 111.1 nM | 1.08 | –
E21 [2], 333.3 nM | 0.913 | –
E21 [2], 1000 nM | 0.784 | –
E21 [2], 3000 nM | 0.381 | –
E21 [9], 4.1 nM | – | 1.03
E21 [9], 12.3 nM | – | 0.945
E21 [9], 37 nM | – | 0.996
E21 [9], 111.1 nM | – | 1.1
E21 [9], 333.3 nM | – | 1.04
E21 [9], 1000 nM | – | 0.872
E21 [9], 3000 nM | – | 1
E28 [7], 4.1 nM | 0.972 | –
E28 [7], 12.3 nM | 1.17 | –
E28 [7], 37 nM | 0.735 | –
E28 [7], 111.1 nM | 1.32 | –
E28 [7], 333.3 nM | 0.871 | –
E28 [7], 1000 nM | 1.28 | –
E28 [7], 3000 nM | 0.95 | –
E28 [14], 4.1 nM | – | 0.82
E28 [14], 12.3 nM | – | 1.08
E28 [14], 37 nM | – | 0.909
E28 [14], 111.1 nM | – | 1.31
E28 [14], 333.3 nM | – | 1.03
E28 [14], 1000 nM | – | 1.09
E28 [14], 3000 nM | – | 1.04
E31 [5], 4.1 nM | 0.849 | –
E31 [5], 12.3 nM | 1.02 | –
E31 [5], 37 nM | 1.47 | –
E31 [5], 111.1 nM | 1.03 | –
E31 [5], 333.3 nM | 0.83 | –
E31 [5], 1000 nM | 0.791 | –
E31 [5], 3000 nM | 0.951 | –
E31 [12], 4.1 nM | – | 0.994
E31 [12], 12.3 nM | – | 0.978
E31 [12], 37 nM | – | 0.972
E31 [12], 111.1 nM | – | 1.02
E31 [12], 333.3 nM | – | 0.968
E31 [12], 1000 nM | – | 1.07
E31 [12], 3000 nM | – | 0.947
E34 [1], 4.1 nM | 1.19 | –
E34 [1], 12.3 nM | 0.687 | –
E34 [1], 37 nM | 0.776 | –
E34 [1], 111.1 nM | 1.03 | –
E34 [1], 333.3 nM | 0.862 | –
E34 [1], 1000 nM | 1.13 | –
E34 [1], 3000 nM | 0.579 | –
E34 [8], 4.1 nM | – | 1.03
E34 [8], 12.3 nM | – | 0.958
E34 [8], 37 nM | – | 0.993
E34 [8], 111.1 nM | – | 1.04
E34 [8], 333.3 nM | – | 0.904
E34 [8], 1000 nM | – | 1.29
E34 [8], 3000 nM | – | 1.03
E57 [4], 4.1 nM | 0.41 | –
E57 [4], 12.3 nM | 0.828 | –
E57 [4], 37 nM | 0.568 | –
E57 [4], 111.1 nM | 0.557 | –
E57 [4], 333.3 nM | 0.555 | –
E57 [4], 1000 nM | 0.56 | –
E57 [4], 3000 nM | 0.478 | –
E57 [11], 4.1 nM | – | 0.938
E57 [11], 12.3 nM | – | 1.06
E57 [11], 37 nM | – | 1.02
E57 [11], 111.1 nM | – | 0.94
E57 [11], 333.3 nM | – | 0.938
E57 [11], 1000 nM | – | 0.896
E57 [11], 3000 nM | – | 0.99
FT3469 [3], 4.1 nM | 0.505 | –
FT3469 [3], 12.3 nM | 1.05 | –
FT3469 [3], 37 nM | 0.628 | –
FT3469 [3], 111.1 nM | 1.13 | –
FT3469 [3], 333.3 nM | 0.522 | –
FT3469 [3], 1000 nM | 1.07 | –
FT3469 [3], 3000 nM | 0.83 | –
FT3469 [10], 4.1 nM | – | 0.912
FT3469 [10], 12.3 nM | – | 1.15
FT3469 [10], 37 nM | – | 0.999
FT3469 [10], 111.1 nM | – | 0.863
FT3469 [10], 333.3 nM | – | 0.935
FT3469 [10], 1000 nM | – | 0.921
FT3469 [10], 3000 nM | – | 1.1

O=C(Oc1cccc2cccnc12)c1ccccc1 [Benzoxiquine]
Details | phenotypic distance | surviving fraction
E13 [6], 4.1 nM | 1.08 | –
E13 [6], 12.3 nM | 1.14 | –
E13 [6], 37 nM | 0.78 | –
E13 [6], 111.1 nM | 0.506 | –
E13 [6], 333.3 nM | 0.775 | –
E13 [6], 1000 nM | 0.864 | –
E13 [6], 3000 nM | 19.1 | –
E13 [13], 4.1 nM | – | 0.876
E13 [13], 12.3 nM | – | 0.962
E13 [13], 37 nM | – | 1.05
E13 [13], 111.1 nM | – | 0.997
E13 [13], 333.3 nM | – | 1.09
E13 [13], 1000 nM | – | 0.85
E13 [13], 3000 nM | – | 0.000925
E21 [2], 4.1 nM | 1.17 | –
E21 [2], 12.3 nM | 0.851 | –
E21 [2], 37 nM | 1.34 | –
E21 [2], 111.1 nM | 0.833 | –
E21 [2], 333.3 nM | 1.24 | –
E21 [2], 1000 nM | 0.732 | –
E21 [2], 3000 nM | 23.9 | –
E21 [9], 4.1 nM | – | 0.962
E21 [9], 12.3 nM | – | 1.11
E21 [9], 37 nM | – | 1.13
E21 [9], 111.1 nM | – | 1.1
E21 [9], 333.3 nM | – | 0.981
E21 [9], 1000 nM | – | 1.04
E21 [9], 3000 nM | – | 0
E28 [7], 4.1 nM | 1.39 | –
E28 [7], 12.3 nM | 0.791 | –
E28 [7], 37 nM | 1.24 | –
E28 [7], 111.1 nM | 0.938 | –
E28 [7], 333.3 nM | 0.845 | –
E28 [7], 1000 nM | 1.59 | –
E28 [7], 3000 nM | 17.6 | –
E28 [14], 4.1 nM | – | 0.997
E28 [14], 12.3 nM | – | 1.14
E28 [14], 37 nM | – | 1.07
E28 [14], 111.1 nM | – | 1.1
E28 [14], 333.3 nM | – | 1.07
E28 [14], 1000 nM | – | 1.27
E28 [14], 3000 nM | – | 0.00427
E31 [5], 4.1 nM | 1.12 | –
E31 [5], 12.3 nM | 1.22 | –
E31 [5], 37 nM | 0.854 | –
E31 [5], 111.1 nM | 1.7 | –
E31 [5], 333.3 nM | 1.32 | –
E31 [5], 1000 nM | 1.22 | –
E31 [5], 3000 nM | 15.5 | –
E31 [12], 4.1 nM | – | 0.993
E31 [12], 12.3 nM | – | 0.838
E31 [12], 37 nM | – | 0.975
E31 [12], 111.1 nM | – | 1.19
E31 [12], 333.3 nM | – | 1.04
E31 [12], 1000 nM | – | 1.04
E31 [12], 3000 nM | – | 0
E34 [1], 4.1 nM | 0.673 | –
E34 [1], 12.3 nM | 0.614 | –
E34 [1], 37 nM | 0.56 | –
E34 [1], 111.1 nM | 0.455 | –
E34 [1], 333.3 nM | 0.815 | –
E34 [1], 1000 nM | 1.42 | –
E34 [1], 3000 nM | 19.8 | –
E34 [8], 4.1 nM | – | 0.906
E34 [8], 12.3 nM | – | 0.899
E34 [8], 37 nM | – | 0.981
E34 [8], 111.1 nM | – | 1.1
E34 [8], 333.3 nM | – | 1.07
E34 [8], 1000 nM | – | 0.844
E34 [8], 3000 nM | – | 0.00175
E57 [4], 4.1 nM | 0.568 | –
E57 [4], 12.3 nM | 0.458 | –
E57 [4], 37 nM | 0.358 | –
E57 [4], 111.1 nM | 0.673 | –
E57 [4], 333.3 nM | 0.716 | –
E57 [4], 1000 nM | 0.72 | –
E57 [4], 3000 nM | 13.7 | –
E57 [11], 4.1 nM | – | 0.965
E57 [11], 12.3 nM | – | 0.992
E57 [11], 37 nM | – | 0.997
E57 [11], 111.1 nM | – | 1.01
E57 [11], 333.3 nM | – | 0.999
E57 [11], 1000 nM | – | 1.02
E57 [11], 3000 nM | – | 0.00305
FT3469 [3], 4.1 nM | 0.579 | –
FT3469 [3], 12.3 nM | 0.893 | –
FT3469 [3], 37 nM | 0.62 | –
FT3469 [3], 111.1 nM | 0.641 | –
FT3469 [3], 333.3 nM | 1.07 | –
FT3469 [3], 1000 nM | 0.688 | –
FT3469 [3], 3000 nM | 14.3 | –
FT3469 [10], 4.1 nM | – | 1.05
FT3469 [10], 12.3 nM | – | 0.924
FT3469 [10], 37 nM | – | 1.06
FT3469 [10], 111.1 nM | – | 1.03
FT3469 [10], 333.3 nM | – | 1.21
FT3469 [10], 1000 nM | – | 1
FT3469 [10], 3000 nM | – | 0.00288
